In ChEMBL document CHEMBL1151924, “Characterization of lassa virus cell entry inhibitors: determination of the active enantiomer by asymmetric synthesis” (Bioorg Med Chem Lett, 2009):

Assays:
Lassa virus = assay: Antiviral activity against LASV infected in human A549 cells; format: functional, organism-based, Mammarenavirus lassaense
[1] = Inhibition of JUNV envelope glycoprotein-mediated late endosomal pH-dependent membrane fusion by cell-cell fusion reporter assay; conditions: Mammarenavirus juninense
[2] = Mammarenavirus lassaense, A549, read-out: IC50

| SMILES | IC50 (Lassa virus; [2]) | IC50 [1] | IC50 (Lassa virus; a549) |
| --- | --- | --- | --- |
| COc1ccc(C(=O)N2CC(=O)N(Cc3ccc(C)cc3)C(CCc3ccccc3)C2)cc1 (configuration not stated) | 0.4 µM |  |  |
| CCC1CN(C(=O)c2cc3ccccc3o2)CC(=O)N1Cc1cccc(C(F)(F)F)c1 (configuration not stated) | 1.6 µM |  |  |
| O=C(c1cc2ccccc2s1)N1CC(=O)N(Cc2ccc(Cl)cc2)C(Cc2ccccc2)C1 (configuration not stated) | 2.1 µM |  |  |
| COc1ccc(CN2C(=O)CN(C(=O)c3cc4ccccc4s3)CC2CCc2ccccc2)cc1 (configuration not stated) | 0.5 µM | 0.2 µM |  |
| Cc1ccc(CN2C(=O)CN(C(=O)c3cc4ccccc4o3)C[C@H]2Cc2ccccc2)cc1 | 3 µM |  |  |
| COc1ccc(CN2C(=O)CN(C(=O)c3cc4ccccc4o3)CC2Cc2ccccc2)cc1 (configuration not stated) | 0.6 µM |  |  |
| Cc1ccc(CN2C(=O)CN(C(=O)c3cc4ccccc4o3)C[C@@H]2Cc2ccccc2)cc1 | 0.2 µM |  |  |
| CCC1CN(C(=O)c2cc3ccccc3[nH]2)CC(=O)N1Cc1cccc(C(F)(F)F)c1 (configuration not stated) | 2.4 µM |  |  |
| Cc1ccc(CN2CCN(C(=O)c3cc4ccccc4o3)C[C@@H]2Cc2ccccc2)cc1 | 3.1 µM |  |  |
| Cc1ccc(CN2C(=O)CN(C(=O)c3cc4ccccc4o3)CC2Cc2ccccc2)cc1 (racemic) | 0.8 µM | 0.2 µM |  |
| Cc1ccc(CN2C(=O)CN(C(=O)c3ccc(C)cc3)CC2CCc2ccccc2)cc1 (configuration not stated) | 1.2 µM |  |  |
| O=C(c1cc2ccccc2o1)N1CC(=O)N(Cc2cccc(C(F)(F)F)c2)C(Cc2ccccc2)C1 (configuration not stated) | 1.8 µM |  |  |
| Cc1ccc(CN2C(=O)CNC[C@@H]2Cc2ccccc2)cc1 |  |  | Not Active |
| COc1ccc(CN2C(=O)CN(C(=O)c3cc4ccccc4[nH]3)CC2CCc2ccccc2)cc1 (configuration not stated) | 1.7 µM |  |  |
| COc1ccc(CN2C(=O)CN(C(=O)c3cc4ccccc4[nH]3)CC2Cc2ccccc2)cc1 (configuration not stated) | 1.2 µM |  |  |
| Cc1ccc(CN2C(=O)CN(Cc3cc4ccccc4o3)C[C@@H]2Cc2ccccc2)cc1 | 10 µM |  |  |
| O=C(c1cc2ccccc2o1)N1CC(=O)N(Cc2ccc(Cl)cc2)C(Cc2ccccc2)C1 (configuration not stated) | 0.8 µM |  |  |
| O=C(c1cc2ccccc2o1)N1CCN[C@@H](Cc2ccccc2)C1 |  |  | Not Active |
| COc1ccc(CN2C(=O)CN(C(=O)c3cc4ccccc4o3)CC2CCc2ccccc2)cc1 (configuration not stated) | 1 µM | 0.2 µM |  |
